Converted amounts (≈) assume the structure as drawn. Read-outs that look alike come from different tables or passages of the source.
Test: Solubility of meloxicam API in different pH buffered solutions
Type: physicochemical
Conditions: read-out: Meloxicam API Solubility (BCS)

Cc1cnc(NC(=O)C2=C(O)c3ccccc3S(=O)(=O)N2C)s1 [Meloxicam, 4-hydroxy-2-methyl-N-(5-methyl-2-thiazolyl)-2H-1,2-benzothiazine-3-carboxamide-1,1-dioxide]
solubility (aqueous buffer, pH 4.5 Acetate buffer): 30 µg/mL (≈ 85.4 µM)
solubility (aqueous buffer, pH 6.8 Phosphate Buffer): 2700 µg/mL (≈ 7680 µM)
solubility (aqueous buffer, pH 7.5 Phosphate buffer): 110 µg/mL (≈ 313 µM)
solubility (simulated gastric fluid, 0.01N HCl (pH 2.0)): 20 µg/mL (≈ 56.9 µM)
